Laboratory results published in ChEMBL document CHEMBL1155131, “Discovery of conformationally rigid 3-azabicyclo[3.1.0]hexane-derived dipeptidyl peptidase-IV inhibitors” (Bioorg Med Chem Lett, 2008).

Key:
[1] = target: Dipeptidyl peptidase 2 (Homo sapiens, UniProt Q9UHL4); assay: Inhibition of DPP2
[2] = Antiproliferative activity against T cells; conditions: T-cell
[3] = target: T1, Prolyl endopeptidase (Homo sapiens, UniProt P48147); assay: Inhibition of PPCE
T1 sequence (P48147 whole entry): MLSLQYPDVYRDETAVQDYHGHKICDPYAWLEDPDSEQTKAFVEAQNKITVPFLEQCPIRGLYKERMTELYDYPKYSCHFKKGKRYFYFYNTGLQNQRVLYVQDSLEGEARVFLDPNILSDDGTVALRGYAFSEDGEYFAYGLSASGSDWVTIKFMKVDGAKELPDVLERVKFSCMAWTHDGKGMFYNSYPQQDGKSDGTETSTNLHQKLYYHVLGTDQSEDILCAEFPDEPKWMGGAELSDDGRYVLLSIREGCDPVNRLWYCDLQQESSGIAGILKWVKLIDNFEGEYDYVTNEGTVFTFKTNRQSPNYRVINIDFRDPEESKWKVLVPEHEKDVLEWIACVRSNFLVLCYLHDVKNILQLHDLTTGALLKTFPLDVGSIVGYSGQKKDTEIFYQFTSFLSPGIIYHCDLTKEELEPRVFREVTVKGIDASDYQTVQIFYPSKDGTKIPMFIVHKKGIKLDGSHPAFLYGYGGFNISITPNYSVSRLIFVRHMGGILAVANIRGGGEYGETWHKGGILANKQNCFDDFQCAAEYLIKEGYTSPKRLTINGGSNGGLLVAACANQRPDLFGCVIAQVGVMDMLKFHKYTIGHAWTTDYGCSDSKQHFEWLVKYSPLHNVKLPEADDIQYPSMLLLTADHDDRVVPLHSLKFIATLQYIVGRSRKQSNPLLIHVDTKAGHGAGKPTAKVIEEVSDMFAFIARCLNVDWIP

[4] = target: Dipeptidyl peptidase 8 (Homo sapiens, UniProt Q6V1X1); assay: Inhibition of DPP8
[5] = target: Dipeptidyl peptidase 4 (Homo sapiens, UniProt P27487); assay: Inhibition of human plasma DPP4; assay type: cell-free
[6] = target: Dipeptidyl peptidase 9 (Homo sapiens, UniProt Q86TI2); assay: Inhibition of DPP9
Sequence of Dipeptidyl peptidase 9 (Q86TI2 whole entry): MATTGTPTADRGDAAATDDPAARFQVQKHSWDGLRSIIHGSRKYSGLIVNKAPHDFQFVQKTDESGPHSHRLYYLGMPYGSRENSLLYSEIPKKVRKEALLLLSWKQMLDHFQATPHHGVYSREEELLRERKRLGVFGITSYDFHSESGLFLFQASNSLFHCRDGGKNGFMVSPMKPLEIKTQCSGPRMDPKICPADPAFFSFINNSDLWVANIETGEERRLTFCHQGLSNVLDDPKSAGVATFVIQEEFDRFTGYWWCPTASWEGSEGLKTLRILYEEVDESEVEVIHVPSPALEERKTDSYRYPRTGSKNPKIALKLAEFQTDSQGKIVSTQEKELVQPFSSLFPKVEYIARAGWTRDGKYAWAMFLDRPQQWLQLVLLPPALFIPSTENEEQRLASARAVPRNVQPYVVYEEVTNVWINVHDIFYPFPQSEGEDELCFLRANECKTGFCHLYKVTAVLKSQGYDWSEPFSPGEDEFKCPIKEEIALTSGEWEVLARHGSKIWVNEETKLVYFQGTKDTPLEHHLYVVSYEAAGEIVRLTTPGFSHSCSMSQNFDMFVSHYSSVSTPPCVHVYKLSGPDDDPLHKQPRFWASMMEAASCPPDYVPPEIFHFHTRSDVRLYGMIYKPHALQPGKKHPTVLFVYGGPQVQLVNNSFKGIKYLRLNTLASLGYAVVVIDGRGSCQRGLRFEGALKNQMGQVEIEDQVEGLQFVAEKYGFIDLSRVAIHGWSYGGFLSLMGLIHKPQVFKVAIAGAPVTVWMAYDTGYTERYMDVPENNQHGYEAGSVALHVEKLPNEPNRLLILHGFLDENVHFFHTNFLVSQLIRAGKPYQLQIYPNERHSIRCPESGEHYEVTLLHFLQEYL

Sequence of Dipeptidyl peptidase 8 (Q6V1X1 whole entry): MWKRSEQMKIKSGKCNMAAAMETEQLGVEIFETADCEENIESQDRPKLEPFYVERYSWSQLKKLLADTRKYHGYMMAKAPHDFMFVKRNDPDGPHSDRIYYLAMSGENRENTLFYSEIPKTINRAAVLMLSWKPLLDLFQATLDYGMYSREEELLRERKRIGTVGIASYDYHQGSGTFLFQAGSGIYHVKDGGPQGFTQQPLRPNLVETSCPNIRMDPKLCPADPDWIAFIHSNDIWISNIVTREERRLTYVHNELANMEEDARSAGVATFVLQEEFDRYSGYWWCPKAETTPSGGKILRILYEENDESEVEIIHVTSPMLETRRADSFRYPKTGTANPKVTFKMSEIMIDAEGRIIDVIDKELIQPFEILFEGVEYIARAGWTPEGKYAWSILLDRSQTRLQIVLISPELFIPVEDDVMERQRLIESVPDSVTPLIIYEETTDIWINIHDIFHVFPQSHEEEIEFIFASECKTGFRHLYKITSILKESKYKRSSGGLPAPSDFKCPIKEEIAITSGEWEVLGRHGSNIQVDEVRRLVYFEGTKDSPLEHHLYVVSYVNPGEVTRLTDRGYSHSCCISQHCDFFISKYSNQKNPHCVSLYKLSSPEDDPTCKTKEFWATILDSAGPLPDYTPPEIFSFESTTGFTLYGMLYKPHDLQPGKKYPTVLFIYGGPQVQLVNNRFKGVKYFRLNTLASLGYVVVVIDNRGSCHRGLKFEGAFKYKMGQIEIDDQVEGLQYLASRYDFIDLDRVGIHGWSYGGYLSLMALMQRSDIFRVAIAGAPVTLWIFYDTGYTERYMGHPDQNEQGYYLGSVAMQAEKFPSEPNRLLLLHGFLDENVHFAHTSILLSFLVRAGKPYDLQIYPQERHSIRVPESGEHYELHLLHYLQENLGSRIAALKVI
Sequence of Dipeptidyl peptidase 4 (P27487 whole entry): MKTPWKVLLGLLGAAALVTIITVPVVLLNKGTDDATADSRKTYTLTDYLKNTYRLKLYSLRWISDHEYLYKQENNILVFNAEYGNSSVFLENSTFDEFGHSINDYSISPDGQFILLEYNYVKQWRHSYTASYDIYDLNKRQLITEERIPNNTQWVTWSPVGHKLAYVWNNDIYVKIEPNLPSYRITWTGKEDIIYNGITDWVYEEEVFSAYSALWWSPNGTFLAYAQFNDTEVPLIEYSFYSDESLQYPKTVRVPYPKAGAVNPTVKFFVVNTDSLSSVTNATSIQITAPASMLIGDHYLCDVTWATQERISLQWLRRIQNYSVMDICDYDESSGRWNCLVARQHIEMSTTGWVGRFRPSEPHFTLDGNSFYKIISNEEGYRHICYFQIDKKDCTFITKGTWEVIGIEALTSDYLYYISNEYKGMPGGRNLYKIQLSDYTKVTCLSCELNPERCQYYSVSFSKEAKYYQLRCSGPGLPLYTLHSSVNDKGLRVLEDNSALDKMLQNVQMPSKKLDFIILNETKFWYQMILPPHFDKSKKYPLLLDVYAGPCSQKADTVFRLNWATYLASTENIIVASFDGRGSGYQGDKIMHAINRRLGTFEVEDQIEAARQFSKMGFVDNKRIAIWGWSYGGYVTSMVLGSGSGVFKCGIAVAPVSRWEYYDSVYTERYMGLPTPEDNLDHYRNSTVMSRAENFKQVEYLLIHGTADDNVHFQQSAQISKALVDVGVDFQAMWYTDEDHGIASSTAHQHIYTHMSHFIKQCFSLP

| IC50 [1] | IC50 [3] | Structure (SMILES) | further results |
| --- | --- | --- | --- |
| 8.75 µM | 9.04 µM | N#C[C@@H]1C[C@H](F)CN1C(=O)CN[C@H]1[C@@H]2CN(c3ccc(Cl)cn3)C[C@@H]21 | IC50 [2]: > 10 µM |
| 18.1 µM | – | N#Cc1ccc(N2C[C@@H]3[C@H](C2)[C@H]3NCC(=O)N2C[C@@H](F)C[C@H]2C#N)cc1 | – |
| 2.76 µM | > 10 µM | N#Cc1ccc(N2C[C@@H]3[C@H](C2)[C@H]3NCC(=O)N2C[C@@H](F)C[C@H]2C#N)c(F)c1 | – |
| 13 µM | 8.5 µM | N#C[C@@H]1C[C@H](F)CN1C(=O)CN[C@H]1[C@@H]2CN(c3ccc([N+](=O)[O-])cn3)C[C@@H]21 | – |
| > 10 µM | > 10 µM | N#Cc1cc(F)ccc1N1C[C@@H]2[C@H](C1)[C@H]2NCC(=O)N1C[C@@H](F)C[C@H]1C#N | – |
| 11 µM | > 100 µM | N#C[C@@H]1C[C@H](F)CN1C(=O)CN[C@H]1[C@@H]2CN(c3nccs3)C[C@@H]21 | – |
| 5.1 µM | > 10 µM | N#C[C@@H]1C[C@H](F)CN1C(=O)CN[C@H]1[C@@H]2CN(c3nc4ccccc4s3)C[C@@H]21 | – |
| 5.1 µM | > 100 µM | N#C[C@@H]1C[C@H](F)CN1C(=O)CN[C@H]1[C@@H]2CN(c3nc4ccccc4o3)C[C@@H]21 | – |
| 6.42 µM | > 10 µM | N#C[C@@H]1C[C@H](F)CN1C(=O)CN[C@H]1[C@@H]2CN(c3ncccc3[N+](=O)[O-])C[C@@H]21 | – |
| 4.33 µM | > 100 µM | N#Cc1cc(C(F)(F)F)ccc1N1C[C@@H]2[C@H](C1)[C@H]2NCC(=O)N1C[C@@H](F)C[C@H]1C#N | – |
| 9 µM | – | CC(=O)c1ccc(N2C[C@@H]3[C@H](C2)[C@H]3NCC(=O)N2C[C@@H](F)C[C@H]2C#N)cc1 | IC50 [2]: > 10 µM |
| 1.8 µM | 9.15 µM | N#Cc1cc(F)cc(N2C[C@@H]3[C@H](C2)[C@H]3NCC(=O)N2C[C@@H](F)C[C@H]2C#N)c1 | – |
| 1.3 µM | > 10 µM | N#Cc1cccc(F)c1N1C[C@@H]2[C@H](C1)[C@H]2NCC(=O)N1C[C@@H](F)C[C@H]1C#N | – |
| 1 µM | 2.1 µM | N#Cc1ccc(N2C[C@@H]3[C@H](C2)[C@H]3NCC(=O)N2C[C@@H](F)C[C@H]2C#N)c(C(F)(F)F)c1 | – |
| 1.3 µM | > 10 µM | N#Cc1c(N2C[C@@H]3[C@H](C2)[C@H]3NCC(=O)N2C[C@@H](F)C[C@H]2C#N)cccc1C(F)(F)F | – |
| 3.9 µM | 8.7 µM | N#Cc1c(F)cc(F)cc1N1C[C@@H]2[C@H](C1)[C@H]2NCC(=O)N1C[C@@H](F)C[C@H]1C#N | – |
| 0.163 µM | – | NCC[C@H](N)C(=O)N1CCCCC1 | – |

More lines, now with the values behind:

| Structure (SMILES) | IC50 [1] | IC50 [3] | further results |
| --- | --- | --- | --- |
| N#Cc1cccnc1N1C[C@@H]2[C@H](C1)[C@H]2NCC(=O)N1C[C@@H](F)C[C@H]1C#N | 1.34 µM | – | IC50 [2]: > 10 µM |
| CNC(=O)c1ccc(N2C[C@@H]3[C@H](C2)[C@H]3NCC(=O)N2C[C@@H](F)C[C@H]2C#N)cc1 | – | – | IC50 [2]: > 10 µM |
| N#C[C@@H]1C[C@H](F)CN1C(=O)CN[C@H]1[C@@H]2CN(c3ccc(C(=O)NC4CC4)cc3)C[C@@H]21 | – | – | IC50 [2]: > 10 µM |
| N#Cc1ccccc1N1C[C@@H]2[C@H](C1)[C@H]2NCC(=O)N1C[C@@H](F)C[C@H]1C#N | 0.406 µM | > 10 µM | – |
| N#Cc1c(Cl)cccc1N1C[C@@H]2[C@H](C1)[C@H]2NCC(=O)N1C[C@@H](F)C[C@H]1C#N | 0.096 µM | – | IC50 [4]: > 10 µM; IC50 [2]: > 10 µM |
| N#Cc1ccc(N2C[C@@H]3[C@H](C2)[C@H]3NCC(=O)N2C[C@@H](F)C[C@H]2C#N)cc1F | 1.2 µM | 9.94 µM | IC50 [2]: > 10 µM |
| N#Cc1c(F)cccc1N1C[C@@H]2[C@H](C1)[C@H]2NCC(=O)N1C[C@@H](F)C[C@H]1C#N | > 10 µM | > 10 µM | IC50 [4]: > 10 µM |
| CCOC(=O)c1ccc(N2C[C@@H]3[C@H](C2)[C@H]3NCC(=O)N2C[C@@H](F)C[C@H]2C#N)cc1 | 9.88 µM | – | – |
| N#C[C@@H]1C[C@H](F)CN1C(=O)CN[C@H]1[C@@H]2CN(c3ccc(C(N)=O)cc3)C[C@@H]21 | 21.8 µM | – | IC50 [2]: > 10 µM |
| N#C[C@@H]1C[C@H](F)CN1C(=O)CN[C@H]1[C@@H]2CN(c3ccc(C(F)(F)F)cn3)C[C@@H]21 | 4 µM | > 100 µM | – |
| N#Cc1ccc(N2C[C@@H]3[C@H](C2)[C@H]3NCC(=O)N2CC(F)(F)C[C@H]2C#N)nc1 | 2.8 µM | – | – |
| N#Cc1ccc(N2C[C@@H]3[C@H](C2)[C@H]3NCC(=O)N2CCSC2)nc1 | – | – | IC50 [5]: > 10 µM |
| N#Cc1ccc(N2C[C@@H]3[C@H](C2)[C@H]3NCC(=O)N2C[C@@H](F)C[C@H]2C#N)cc1Cl | 0.907 µM | – | – |
| N#Cc1ccc(N2C[C@@H]3[C@H](C2)[C@H]3NCC(=O)N2C[C@@H](F)C[C@H]2C#N)c(Cl)c1 | 1 µM | – | – |
| N#C[C@@H]1C[C@H](F)CN1C(=O)CN[C@H]1[C@@H]2CN(c3cnc4ccccc4n3)C[C@@H]21 | 0.226 µM | > 10 µM | – |
| N#C[C@@H]1C[C@H](F)CN1C(=O)CN[C@H]1[C@@H]2CN(c3ncccn3)C[C@@H]21 | 16.5 µM | – | IC50 [6]: > 100 µM |
| N#C[C@@H]1C[C@H](F)CN1C(=O)CN[C@H]1[C@@H]2CN(c3nccc(C(F)(F)F)n3)C[C@@H]21 | 2.2 µM | > 100 µM | – |
| N[C@@H](CCCCNC(=O)OCc1ccc([N+](=O)[O-])cc1)C(=O)N1CCCC1 | – | – | IC50 [2]: 0.839 µM |
| N#C[C@@H]1C[C@H](F)CN1C(=O)CN[C@H]1[C@@H]2CN(c3ccccn3)C[C@@H]21 | 10.8 µM | 1.42 µM | IC50 [2]: > 10 µM |
| N#Cc1ccc(N2C[C@@H]3[C@H](C2)[C@H]3NCC(=O)N2C[C@@H](F)C[C@H]2C#N)nc1 | 11 µM | > 100 µM | – |
| N#Cc1c(F)cc(N2C[C@@H]3[C@H](C2)[C@H]3NCC(=O)N2C[C@@H](F)C[C@H]2C#N)cc1F | 10.9 µM | 9.7 µM | – |
| N#C[C@@H]1CCCN1C(=O)CNC12CC3CC(CC(O)(C3)C1)C2 [VILDAGLIPTIN] | – | – | IC50 [2]: > 10 µM |
